Experimental data taken from ChEMBL document CHEMBL5357007, “Withanolides from Physalis angulata var. villosa and the Relative Configurational Revision of Some Known Analogs” (J Nat Prod, 2024).

Experiments:
Format in all cases: functional, cell-based
HCT-116 = assay: Cytotoxicity against human HCT-116 cells assessed as inhibition of cell growth incubated for 72 hrs by CCK-8 assay; details: HCT-116, 72 h
A549 = assay: Cytotoxicity against human A549 cells assessed as inhibition of cell growth incubated for 72 hrs by CCK-8 assay; details: A549, 72 h
MDA-MB-231 = assay: Cytotoxicity against human MDA-MB-231 cells assessed as inhibition of cell growth incubated for 72 hrs by CCK-8 assay; details: MDA-MB-231, 72 h

| Structure (SMILES) | IC50 (HCT-116) [µM] | IC50 (A549) [µM] | IC50 (MDA-MB-231) [µM] |
| --- | --- | --- | --- |
| CC(=O)O[C@H]1C=C([C@H](C)[C@H]2CC(C)=C(C)C(=O)O2)[C@@]2(C)CC[C@H]3[C@@H](C[C@H]4O[C@]45C[C@@H](O)CC(=O)[C@]35C)[C@@]12O | > 10 | > 10 | > 10 |
| CCO[C@H]1CC(=O)[C@]2(C)[C@H]3CC[C@]4(C)C([C@H](C)[C@H]5CC(C)=C(C)C(=O)O5)=C[C@H](OC(C)=O)[C@]4(O)[C@@H]3C[C@H]3O[C@]32[C@H]1O | > 10 | > 10 | > 10 |
| CC(=O)O[C@H]1C[C@H]([C@H](C)[C@H]2CC(C)=C(C)C(=O)O2)[C@@]2(C)CCC3[C@@H](C[C@@H](O)C4=CC=CC(=O)[C@@]43C)[C@@]12O (stereo not given in full) | > 10 | > 10 | > 10 |
| CC(=O)O[C@H]1[C@H](O)[C@](O)([C@H](C)[C@H]2CC(C)=C(C)C(=O)O2)[C@@]2(C)CC[C@H]3[C@@H](C[C@H]4O[C@]45[C@@H](O)C=CC(=O)[C@]35C)[C@@]12O | 7.2 | > 10 | 9.1 |
| CC(=O)O[C@H]1[C@@H]2O[C@]2([C@@H](C)[C@H]2CC(C)=C(C)C(=O)O2)[C@@]2(C)CC[C@H]3[C@@H](C[C@H](Cl)[C@]4(O)CC=CC(=O)[C@]34C)[C@@]12O | > 10 | > 10 | > 10 |
| CCO[C@H]1CC(=O)[C@]2(C)[C@H]3CC[C@]4(C)[C@@H]([C@H](C)[C@H]5CC(C)=C(C)C(=O)O5)C[C@H](O)[C@]4(O)[C@@H]3C[C@H]3O[C@]32[C@H]1O | > 10 | > 10 | > 10 |
| CC(=O)O[C@H]1C=C([C@H](C)[C@H]2CC(C)=C(C)C(=O)O2)[C@@]2(C)CC[C@H]3[C@@H](CC(=O)C4CC=CC(=O)[C@@]43C)[C@@]12O (stereo not given in full) | 9.2 | > 10 | > 10 |
| CC(=O)O[C@H]1C[C@H]([C@H](C)[C@@H]2OC(=O)C(C)=C(C)[C@@H]2O)[C@@]2(C)CC[C@H]3[C@@H](C[C@H]4O[C@]45[C@@H](O)C=CC(=O)[C@]35C)[C@@]12O | 8.5 | 9.7 | > 10 |
| CCO[C@H]1CC(=O)[C@]2(C)[C@H]3CC[C@@]4(C)[C@](O)([C@@H](OC(C)=O)C[C@@]4(O)[C@H](C)[C@H]4CC(C)=C(C)C(=O)O4)[C@@H]3C[C@H]3O[C@]32C1 | > 10 | > 10 | > 10 |
| CCO[C@H]1CC(=O)[C@]2(C)[C@H]3CC[C@@]4(C)[C@@](O)([C@@H]3C[C@H]3O[C@]32[C@H]1O)[C@@H](OC(C)=O)[C@@H]1O[C@@]14[C@H](C)[C@H]1CC(C)=C(C)C(=O)O1 | > 10 | > 10 | > 10 |
| CC(=O)O[C@H]1C=C([C@H](C)[C@H]2CC(C)=C(C)C(=O)O2)[C@@]2(C)[C@H](O)C[C@H]3[C@@H](C[C@@H](O)[C@@]4(O)CC=CC(=O)[C@]34C)[C@@]12O | > 10 | > 10 | > 10 |
| CO[C@H]1C=C([C@H](C)[C@H]2CC(C)=C(C)C(=O)O2)[C@@]2(C)CC[C@H]3[C@@H](C[C@@H](O)[C@@]4(Cl)CC=CC(=O)[C@]34C)[C@@]12O | 8.8 | > 10 | 9.4 |
| CCO[C@H]1CC(=O)[C@]2(C)[C@H]3CC[C@]4(C)C([C@H](C)[C@H]5CC(C)=C(C)C(=O)O5)=C[C@H](OC(C)=O)[C@]4(O)[C@@H]3C[C@H]3O[C@]32C1 | > 10 | > 10 | > 10 |
| CC(=O)O[C@H]1C[C@](O)([C@H](C)[C@H]2CC(C)=C(C)C(=O)O2)[C@@]2(C)CC[C@H]3[C@@H](C[C@H]4O[C@]45[C@@H](O)C=CC(=O)[C@]35C)[C@@]12O | 1.8 | 5.9 | 4.5 |
| CC1=C(C)C(=O)O[C@@H]([C@@H](C)C2=C[C@H](O)[C@]3(O)[C@@H]4C[C@H]5O[C@]56[C@@H](O)CCC(=O)[C@]6(C)[C@H]4CC[C@]23C)C1 | > 10 | > 10 | > 10 |
